The values below come from patent US11091428B2 (HAPLOGEN GMBH, priority 2016, dated 2021).

Molecules are shown by their SMILES. pEC50, pIC50: −log10 of the molar value.

For experiment [1], the target named is T1, PLA2G16 (Homo sapiens, UniProt P53816).
T1 construct: Hexa-His (N); made in house; host or cells: E. coli BL21(DE3)
T1 sequence (P53816 1-162): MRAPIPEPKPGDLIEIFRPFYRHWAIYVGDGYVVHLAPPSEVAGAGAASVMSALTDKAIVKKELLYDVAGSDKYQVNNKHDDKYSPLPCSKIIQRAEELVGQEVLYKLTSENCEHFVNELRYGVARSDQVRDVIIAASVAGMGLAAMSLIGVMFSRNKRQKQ
The experiment can be described thus: Enzyme activity assay for PLA2G16 (Red/Green BODIPY PC-A2 fluorescence). The class given is biochemical. As to conditions: His-tagged PLA2G16, 4 min pre-incubation, 2 nM to 50 μM; read-out: IC50 values of the compounds determined in the enzyme activity assay for PLA2G16. The method in brief:
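IC50 from non-linear fits of fluorescence rise (480/530 nm, 10 min) after adding Red/Green BODIPY PC-A2 mixed with DOPC/DOPG/cholesterol liposomes. Recombinant His-tagged human enzyme, bacterially expressed, was first exposed to inhibitor (2 nM–50 μM final) for 4 min in 50 mM Tris pH 8.5, 100 mM NaCl, 5 mM glutathione.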

Experiment [2] relates to picornaviruses (CVB1, HRV-A2, HRV-A23, EV-68). Nature of the experiment: Anti-picornavirus cytopathic effect (CPE) reduction assay on HeLa H1 cells. The class given is cell-based. As to conditions: Enterovirus B, HeLa H1, 48 h, HeLa H1 cells, 48 h, category from averaging the EC50 values from four picornaviruses (CVB1, HRV-A2, HRV-A23, EV68); read-out: EC50 values of the compounds determined in the anti-picornavirus assay. The method in brief:
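Cytopathic-effect protection: EC50 from non-linear regression of cell viability (CellTiterBlue, 560/590 nm) 48 h post-infection, scaled between infected and mock-infected vehicle wells. Compound dilutions added to HeLa H1 cells 2 h before virus (MOI causing complete CPE within 2 days), in DMEM + 2% FBS; categories average the four viruses.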
(Damage to the host cells serves as the signal in cytopathic effect assays.)

Broadly, the pIC50 is −log10 of the IC50, conventionally taken in molar units. As usually defined, the pEC50 is −log10 of the EC50, conventionally taken in molar units. For `CC(C)NC(=O)C(=O)C(C)N(C=O)Cc1ccccc1` (stereo not shown) [FP 57, 3-(N-Benzylformamido)-2-oxo-N-(propan-2-yl)butanamide], the pIC50 in experiment [1] is greater than 6.00. Further, the pEC50 in experiment [2] was 5.00 to 6.00.

As for `COc1ccccc1N(C=O)C(C)C(=O)C(=O)NCC1CCCCC1` (stereo not shown) [FP 25, N-(Cyclohexylmethyl)-3-[N-(2-methoxyphenyl)formamido]-2-oxobutanamide], in experiment [1], the negative logarithm of the IC50 (pIC50) is greater than 6.00. In addition, the pEC50 in experiment [2] is greater than 6.00.

As to `O=C(N[C@@H]1C[C@@H]1F)C(=O)[C@H]1CCC(=O)N1Cc1ccccc1` [FP 267, 2-[(2R)-1-Benzyl-5-oxopyrrolidin-2-yl]-N-[(1R,2S)-2-fluorocyclopropyl]-2-oxoacetamide], the pIC50 in experiment [1] was greater than 6.00. Moreover, the pEC50 in experiment [2] was greater than 6.00.

As for `CC(NC(=O)c1c(Cl)cccc1Cl)C(=O)C(=O)NCC1CC1` (stereo not shown) [FP 163, N-(Cyclopropylmethyl)-3-[(2,6-dichlorophenyl)formamido]-2-oxobutanamide], the pIC50 in experiment [1] was greater than 6.00. Further, the pEC50 in experiment [2] was greater than 6.00.

With `O=C(NCCc1cnccn1)C(=O)C1CCC(=O)N1Cc1ccccc1` (stereo not shown) [FP 227, 2-(1-Benzyl-5-oxopyrrolidin-2-yl)-2-oxo-N-[2-(pyrazin-2-yl)ethyl]acetamide], in experiment [1], the pIC50 was greater than 6.00. The negative logarithm of the EC50 (pEC50) in experiment [2] was 5.00 to 6.00.

In the case of `CC(C(=O)C(=O)NCc1cccc(Cl)c1)N(C)C=O` (stereo not shown) [FP 69, N-[(3-Chlorophenyl)methyl]-3-(N-methylformamido)-2-oxobutanamide], the pIC50 in experiment [1] was 5.00 to 6.00. For the same molecule, in experiment [2], the negative-log EC50 (pEC50) is less than 5.00.

For the molecule `Cc1noc(CNC(=O)C(=O)[C@H]2CCC(=O)N2Cc2ccccc2)n1` [FP 287, 2-[(2R)-1-Benzyl-5-oxopyrrolidin-2-yl]-N-[(3-methyl-1,2,4-oxadiazol-5-yl)methyl]-2-oxoacetamide], in experiment [1], the pIC50 is greater than 6.00. Besides, the negative-log EC50 (pEC50) in experiment [2] is 5.00 to 6.00.

In the case of `CNC(=O)C(=O)C(CC1CCC1)N(C=O)Cc1ccccc1` (stereo not shown) [FP 196, 3-(N-Benzylformamido)-4-cyclobutyl-N-methyl-2-oxobutanamide], in experiment [1], the pIC50 was greater than 6.00. The negative logarithm of the EC50 (pEC50) in experiment [2] was 5.00 to 6.00.

For `CC(C(=O)C(=O)NCc1cccc(Cl)c1)N(C=O)CC1CCCCC1` (stereo not shown) [FP 18, N-[(3-Chlorophenyl)methyl]-3-[N-(cyclohexylmethyl)formamido]-2-oxobutanamide], the pIC50 in experiment [1] was greater than 6.00. Besides, the pEC50 in experiment [2] is greater than 6.00.

With `CC(C(=O)C(=O)NC(C)(C)c1cccc(Cl)c1)N(C=O)C1CCCCC1` (stereo not shown) [FP 27, N[2-(3-Chlorophenyl)propan-2-yl]-3-(N-cyclohexylformamido)-2-oxobutanamide], the pIC50 in experiment [1] was greater than 6.00. In addition, in experiment [2], the pEC50 is greater than 6.00.

Regarding `CC(C)CC(C(=O)C(=O)NCC1CC1)N(C=O)CC1CC1` (stereo not shown) [FP 62, N-(Cyclopropylmethyl)-3-[N-(cyclopropylmethyl)formamido]-5-methyl-2-oxohexanamide], in experiment [1], the pIC50 is greater than 6.00. Further, the pEC50 in experiment [2] is greater than 6.00.

Regarding `CCCC(NC(=O)c1ccccc1)C(=O)C(=O)NCC1CC1` (stereo not shown) [FP 154, N-(Cyclopropylmethyl)-2-oxo-3-(phenylformamido)hexanamide], the negative logarithm of the IC50 (pIC50) in experiment [1] was greater than 6.00. For the same molecule, the negative logarithm of the EC50 (pEC50) in experiment [2] is 5.00 to 6.00.

Turning to `CC(NC(=O)c1ccncc1)C(=O)C(=O)NCC1CCCCC1` (stereo not shown) [FP 205, N-(Cyclohexylmethyl)-2-oxo-3-[(pyridin-4-yl)formamido]butanamide], the pIC50 in experiment [1] is greater than 6.00. Besides, in experiment [2], the pEC50 is 5.00 to 6.00.

As for `N#CC1(CNC(=O)C(=O)[C@H]2CCC(=O)N2Cc2ccccc2)CC1` [FP 290, 2-[(2R)-1-Benzyl-5-oxopyrrolidin-2-yl]-N-[(1-cyanocyclopropyl)methyl]-2-oxoacetamide], the pIC50 in experiment [1] was greater than 6.00. Moreover, in experiment [2], the pEC50 was 5.00 to 6.00.

As to `COc1ccccc1N(C=O)C(C(=O)C(=O)NCc1cccc(Cl)c1)C(C)C` (stereo not shown) [FP 35, N-[(3-Chlorophenyl)methyl]-3-[N-(2-methoxyphenyl)formamido]-4-methyl-2-oxopentanamide], in experiment [1], the pIC50 is greater than 6.00. In addition, in experiment [2], the pEC50 was 5.00 to 6.00.

Regarding `CC(NC(=O)C1CCN(CC(F)(F)F)CC1)C(=O)C(=O)NCC1CCCCC1` (stereo not shown) [FP 206, N-(Cyclohexylmethyl)-2-oxo-3-{[1-(2,2,2-trifluoroethyl)piperidin-4-yl]formamido}-butanamide], the negative-log IC50 (pIC50) in experiment [1] was greater than 6.00. In experiment [2], the pEC50 is 5.00 to 6.00.

In the case of `COc1ccccc1N(C=O)C(C)C(=O)C(=O)NCC(C)C` (stereo not shown) [FP 100, 3-[N-(2-Methoxyphenyl)formamido]-N-(2-methylpropyl)-2-oxobutanamide], in experiment [1], the pIC50 is greater than 6.00. Moreover, the negative logarithm of the EC50 (pEC50) in experiment [2] is 5.00 to 6.00.

Turning to `COc1ccc(F)cc1N(C=O)C(C)C(=O)C(=O)NCc1cccc(Cl)c1` (stereo not shown) [FP 7, N-[(3-Chlorophenyl)methyl]-3-[N-(5-fluoro-2-methoxyphenyl)formamido]-2-oxobutanamide], the negative-log IC50 (pIC50) in experiment [1] is greater than 6.00. Further, the negative logarithm of the EC50 (pEC50) in experiment [2] is greater than 6.00.

As to `C[C@H]1CC(=O)N(Cc2ccccc2)[C@H]1C(=O)C(=O)NCC1CC1` (single isomer, unassigned) [FP 337], in experiment [1], the pIC50 is greater than 6.00. For the same molecule, the negative-log EC50 (pEC50) in experiment [2] was greater than 6.00.

Consider `COc1ccccc1C(=O)NC(C)C(=O)C(=O)NCC1CC1` (stereo not shown) [FP 168, N-(Cyclopropylmethyl)-3-[(2-methoxyphenyl)formamido]-2-oxobutanamide], for which the negative logarithm of the IC50 (pIC50) in experiment [1] is greater than 6.00. The pEC50 in experiment [2] was 5.00 to 6.00.

Take `CC(C)(C)C(=O)N1CCC(NC(=O)C(=O)[C@H]2CCC(=O)N2Cc2ccccc2)CC1` [FP 314, 2-[(2R)-1-Benzyl-5-oxopyrrolidin-2-yl]-N-[1-(2,2-dimethylpropanoyl)piperidin-4-yl]-2-oxoacetamide]: the pIC50 in experiment [1] is greater than 6.00. Moreover, the pEC50 in experiment [2] is 5.00 to 6.00.

Take `CC(C)NC(=O)[C@H]1C[C@@H](NC(=O)C(=O)[C@H]2CCC(=O)N2Cc2ccccc2)C1` [FP 305, (1 s,3s)-3-{2-[(2R)-1-Benzyl-5-oxopyrrolidin-2-yl]-2-oxoacetamido}-N-(propan-2-yl)cyclobutane-1-carboxamide]: the negative-log IC50 (pIC50) in experiment [1] was greater than 6.00. Also, in experiment [2], the negative-log EC50 (pEC50) was 5.00 to 6.00.

Consider `CC(OCC1CCOCC1)C(=O)C(=O)NCC1CCCC1` (stereo not shown) [FP 132, N-(Cyclopentylmethyl)-3-[(oxan-4-yl)methoxy]-2-oxobutanamide], for which, in experiment [1], the pIC50 was greater than 6.00. Further, the pEC50 in experiment [2] was greater than 6.00.

Turning to `Cc1noc(CCNC(=O)C(=O)[C@H]2CCC(=O)N2Cc2ccccc2)n1` [FP 293, 2-[(2R)-1-Benzyl-5-oxopyrrolidin-2-yl]-N-[2-(3-methyl-1,2,4-oxadiazol-5-yl)ethyl]-2-oxoacetamide], the pIC50 in experiment [1] is greater than 6.00. Moreover, the negative logarithm of the EC50 (pEC50) in experiment [2] was 5.00 to 6.00.

As to `CC(C(=O)C(=O)NCCOC1CCCCC1)N(C=O)C1CCCCC1` (stereo not shown) [FP 55, 3-(N-Cyclohexylformamido)-N-[2-(cyclohexyloxy)ethyl]-2-oxobutanamide], in experiment [1], the pIC50 is greater than 6.00. The pEC50 in experiment [2] is greater than 6.00.

Regarding `CC(C)[C@H]1CC(=O)N(Cc2ccccc2)[C@@H]1C(=O)C(=O)NC1CC1` (racemic) [FP 342, 2-[(2S,3R)-1-Benzyl-5-oxo-3-(propan-2-yl)pyrrolidin-2-yl]-N-cyclopropyl-2-oxoacetamide and 2-[(2R,3S)-1-benzyl-5-oxo-3-(propan-2-yl)pyrrolidin-2-yl]-N-cyclopropyl-2-oxoacetamide], in experiment [1], the pIC50 is greater than 6.00. Also, in experiment [2], the pEC50 is greater than 6.00.

In the case of `CCC(NC(=O)c1cnccc1C)C(=O)C(=O)NCC1CCCCC1` (stereo not shown) [FP 211, N-(Cyclohexylmethyl)-3-[(4-methylpyridin-3-yl)formamido]-2-oxopentanamide], in experiment [1], the pIC50 was greater than 6.00. In addition, the negative-log EC50 (pEC50) in experiment [2] is 5.00 to 6.00.

`CC(NC(=O)C1CC(F)(F)C1)C(=O)C(=O)NCC1CC1` (stereo not shown) [FP 174, N-(Cyclopropylmethyl)-3-[(3,3-difluorocyclobutyl)formamido]-2-oxobutanamide]: in experiment [1], the negative-log IC50 (pIC50) is 5.00 to 6.00. Also, the negative logarithm of the EC50 (pEC50) in experiment [2] was less than 5.00.

Turning to `N#CCCNC(=O)C(=O)[C@H]1CCC(=O)N1Cc1ccccc1` [FP 262, 2-[(2R)-1-Benzyl-5-oxopyrrolidin-2-yl]-N-(2-cyanoethyl)-2-oxoacetamide], the pIC50 in experiment [1] was greater than 6.00. The pEC50 in experiment [2] was 5.00 to 6.00.

On to `O=C(NCC1CC1)C(=O)C1CCC(=O)N1Cc1ccccc1` (stereo not shown) [FP 138, 2-(1-Benzyl-5-oxopyrrolidin-2-yl)-N-(cyclopropylmethyl)-2-oxoacetamide], for which the negative-log IC50 (pIC50) in experiment [1] is greater than 6.00. Further, the pEC50 in experiment [2] was greater than 6.00.

`CNC(=O)C(=O)[C@H]1CCC(=O)N1Cc1ccccc1` [FP 281, 2-[(2R)-1-Benzyl-5-oxopyrrolidin-2-yl]-N-methyl-2-oxoacetamide]: the pIC50 in experiment [1] is greater than 6.00. In addition, the negative-log EC50 (pEC50) in experiment [2] is 5.00 to 6.00.

As to `O=CN(Cc1ccccc1)[C@@H](Cc1cn(C(c2ccccc2)(c2ccccc2)c2ccccc2)cn1)C(=O)C(=O)NCC1CCCCC1` [FP 116, (3S)-3-(N-Benzylformamido)-N-(cyclohexylmethyl)-2-oxo-4-[1-(triphenylmethyl)-1H-imidazol-4-yl]butanamide], in experiment [1], the pIC50 was greater than 6.00. Further, the negative logarithm of the EC50 (pEC50) in experiment [2] is greater than 6.00.
